Laboratory results from patent publication US20090317371A1, “Method, Composition, and Device, for the Treatment of Amylase Malfunctions / Inactivity in Association with Saccharides (Mainly Polysaccharides) Based Diseases” (priority 2008, published 2009).

Test: In-vitro testing of glucose units in a glucose solution before and after mixing with the agent
Assay type: biochemical
Conditions: 10 mls of 10% glucose solution (more than 600 mg/dl before)
Protocol: Our methods were: In-vitro testing to determine glucose units in a glucose solution before and after mixing with Amzylite against other known hypoglaycaemic agents (metformin, sulfonylurea, etc) including insulin. 10 mls of 10% concentrated glucose solution tested for glucose concentration using glucose oxidase and or hexokinase (glucometers can also be used). […] One or two capsule of Amzylite was added to the glucose solution. In-vivo: 141 type I and type II diabetics with diabetes neuropathy, in addition to 9 diabetics with renal incompetency, 15 diabetics with chronic wounds to extremities, 2 diabetics had progressive gas gangrene, all patients had neuropathy with impaired sensations to distal extremities and one none diabetic with renal failure were identified. 31 out of 141 were excluded for incomplete records. 8 self discharged. 128 classified into 4 groups: 33 on insulin therapy; 20 on insulin and oral hypoglycaemic agents, 58 on only oral hypoglycaemic therapy, 16 on diet control only. 9 with high creatinine levels, 15 with chronic wounds, 2 had gas gangrene to distal extremities and one non diabetic had renal incompetency and was on dialysis. Laboratory tests were determined before and after starting Amzylite. No placebo was given.
In-vitro testing to determine glucose units in a glucose solution before and after mixing with Amzylite against other known hypoglaycaemic agents (metformin, sulfonylurea, etc) including insulin. 10 mls of 10% concentrated glucose solution tested for glucose concentration using glucose oxidase and or hexokinase (glucometers can also be used). […] One capsule of Amzylite added to the glucose solution. For In-vivo study to determine the effectiveness of Amzylite as treatment for D.M. 141 patients with type I and type II D.M were treated with Amzylite. 31 patients were excluded for incomplete records. 8 patients' self withdrawn. […] Fasting and 2 hours postprandial blood glucose levels (HbA1c checked in some but not all patients) were determined before starting Amzylite. […] Saliva enzymes function tests were determined for disaccharides and polysaccharides in all patients. […] Improvement in patients' symptoms, daily glucose readings (fasting/2 hour postprandial) and HbA1c were set up as target and evaluation criteria. […] Changes were also determined by […]. 1—Improvement with complete recovery, 2—Significant improvement of symptoms and readings (range 70-170 mg/dl and below 200 mg/dl), 3—Improved symptoms but no change on readings, 4—Improved readings but no improvement on symptoms, 5—No change on symptoms or readings, 6—Higher or lower glucose readings. […]

[1] = one capsule of Amzylite, second study
[2] = one or two capsules of Amzylite, first study

| Compound | In vitro glucose readings after mixing [1] | In vitro glucose readings after mixing [2] |
| --- | --- | --- |
| CN(C)C(=N)N=C(N)N [metformin] | No changes | No changes |
| insulin | No changes | No changes |
